Laboratory results reported in paper PMC6340402 (Chemical Science, 2018).

System: HeLa cells
Experiment: Cellular uptake in HeLa cells by confocal laser scanning microscopy
Assay type: cell-based
Conditions: 30 minutes, 37 °C, serum-containing medium, Fig. 3

## FITC-Ahx-Arg-Arg-Arg-Arg-tetrazine-BCN-Arg-Arg-Arg-Arg-NH2 [R4-b-R4]
All concentrations (5, 10, 15 and 20 μM)
  cellular uptake (CLSM, FITC fluorescence): taken up at all concentrations
Higher concentrations
  mechanism of uptake at the higher concentrations (CLSM): strong cytosolic uptake
